Test results reported in US20220409727A1, “Metal Complexes Bearing Bisstyryl-Bipyridine Ligand and Their Use as Photosensitizer Agent in One and Two-Photon Photodynamic Therapy” (Paris Sciences et Lettres, priority 2019, published 2022).
Where two headings read alike, the source gives them in different places.

Experiments:
[1] = system: human glioblastoma astrocytoma (U373) cells; assay: (Photo-)cytotoxicity on 2D cell monolayers, resazurin assay, U373; conditions: for IC50: compounds 1-3 as chloride salts
Experimental: (§1) The human glioblastoma astrocytoma (U373) cell line was cultured in MEM medium supplemented with 10% FBS, 1% NEAA (non-essential amino-acids) and 1% penicillin/streptomycin. […] The human retinal epithelial cells (RPE-1, non-cancerous cells immortalized with hTERT) were cultured in DMEM-F12 medium supplemented with 10% FBS and 1% penicillin/streptomycin. All cell lines were obtained from the American Type Culture Collection (ATCC) and cultured at 37° C. and 5% CO2. Before an experiment, the cells were passaged three times.
(§2) The cytotoxicity of the compounds was assessed by measuring cell viability using a fluorometric resazurin assay. The cultivated cells were seeded in triplicates in 96 well plates with a density of 4000 cells per well in 100 μL of media. After 24 h, the medium was removed and the cells were treated with increasing concentrations of the compound diluted in cell media achieving a total volume of 200 μL. The cells were incubated with the compound for 4 h. After this time, the media was removed and replaced with 200 μL of fresh medium. For the phototoxicity studies, the cells were exposed to light with an Atlas Photonics LUMOS BIO irradiator. Each well was constantly illuminated with either a 480 nm or 540 nm irradiation. During this time, the temperature was maintained constantly at 37° C. The cells were grown in the incubator for additional 44 h. For the determination of the dark cytotoxicity, the cells were not irradiated and after the medium exchange directly incubated for 44 h. After this time, the medium was replaced with fresh medium containing resazurin with a final concentration of 0.2 mg/mL. After 4 h incubation, the amount of the fluorescent product resorufin was determined upon excitation at 540 nm and measurement its emission at 590 nm using a SpectraMax M2 Microplate Reader (Molecular Devices).
(§3) The obtained data was analyzed with the GraphPad Prism software.

[2] = system: mouse colon carcinoma (CT-26) cells; assay: (Photo-)cytotoxicity on 2D cell monolayers, resazurin assay, CT-26; conditions: for IC50: compounds 1-3 as chloride salts
Experimental: as §1, §2, §3

[3] = system: human glioblastoma astrocytoma (U373) cells
Experimental: as §1, §2, §3

[4] = Luminescence lifetime measurements; type: physicochemical; conditions: degassed CH3CN, excitation at 355 nm
Outline: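 Lifetimes were measured in air-saturated and degassed CH3CN solutions (absorbance 0.2 at 355 nm), excited at 355 nm by a pulsed Nd-YAG-pumped OPO. Emission was collected at right angles through a monochromator onto a photomultiplier tube.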

[5] = system: SW620/AD300 (doxorubicin-selected P-gp-overexpressing human colon cancer cell) tumour-bearing nude mice; assay: In vivo PDT in tumour-bearing nude mice
Experimental: 6 weeks age nu/nu female mice were purchased from Charles River. Compound 7 was dissolved into physiological saline at first. Tumor xenograft: 6×10^6 SW620/AD300 cells were subcutaneously (s.c.) injected in the nude mice, the cells were suspension in 150 μL Matrigel (Corning) and saline (1:1, v/v). After a week, the tumor volumes of the mice reached approximately 80 mm^3.
30 SW620/AD300 nude tumour-bearing nude mice were randomly separated into 6 groups and five mice for each group.
Group 1: injected 7 (2 mg/Kg 50 μL) intravenously and irradiate under 800 nm laser (50 mW, 1 kHz, pulse width 35 fs, 5 s/mm) 1 h after injection;
Group 2: injected 7 (2 mg/Kg 50 μL) intravenously and irradiate under 500 nm light (10 mW/cm^2, 60 min);
Group 3: injected by physiological saline (50 μL) and treated with 800 nm laser (50 mW, 1 kHz, pulse width 35 fs, 5 s/mm) 1 h after injection;
Group 4: injected by physiological saline (50 μL) and treated with 500 nm light (10 mW/cm^2, 60 min);
Group 5: intravenous injected 7 (2 mg/Kg 50 μL);
Group 6: injected 50 μL physiological saline.
The mice were anesthetized by the injection of 4% chloral hydrate aqueous solution (0.2 mL/20 g) before treatment. The tumour volume and body weight were measured and record for each two days. Tumor volume was calculated by the following formula
After the treatment, the mice were euthanized. The tumour was collected and fixated by 4% paraformaldehyde, and then obtained as paraffin-embedded samples and stained with hematoxylin and eosin (H&E). A Carl Zeiss Axio Imager Z2 microscope was used to observe the tissue structure and cell state of the sections.

[6] = system: non-cancerous retinal pigment epithelium (RPE-1) cells; assay: (Photo-)cytotoxicity on 2D cell monolayers, resazurin assay, RPE-1;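 further: cells exposed to compound 4 h, medium exchanged, then irradiated or kept dark, 44 h further growth, viability by resorufin fluorescence (ex 540 nm, em 590 nm)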
[7] = system: HeLa MCTS; assay: 3D multicellular tumor spheroids (MCTS) growth inhibition assay; type: cell-based, human; conditions: 20 μM, 1P (500 nm, 10 J/cm^2) or 2P (800 nm, 10 J/cm^2) irradiation on day 3
Experimental: autoclave. The hot emulsion was transferred into wells (50 μL per well) of a 96 cell culture well plate. The plates were exposed for 3 h to UV irradiation to ensure the sterility and allow the agarose solution to cool down. After this time, the agarose was overlayed with a HeLa cell suspension at a density of 3000 cells per well in 150 μL of media. The MCTS were cultivated and maintained at 37° C. in a cell culture incubator at 37° C. with 5% CO2 atmosphere. The culture media was replaced every two days. Within two-three days MCTs were formed from the cell suspension. The formation as well as integrity, diameter and volume of the MCTs was monitored by an Axio Observer Z1 (Carl Zeiss) phase contrast microscope. The volume was calculated using the following formula: V=4/3πr^3. The luminescence images along the z-axis were captured by a one-(λex=458 nm, λem=600-750 nm) or two-photon (λex=800 nm, λem=600-750 nm) excitation in the z-stack mode with a an LSM 880 (Carl Zeiss) laser scanning confocal microscope equipped with Argon and a Coherent Chameleon 2-Photon laser and a GaAsP detector.
MCTS were treated with the corresponding compounds (20 μM 1-7, 20 μM tetraphenylporphyrin H2TPP, 10 μM cisplatin, 30 μM cisplatin, 2% DMSO, v %) by replacing 50% of the media with drug supplemented media in the dark for three days. After this time, the MCTS were exposed to a two-photon irradiation (800 nm, 10 J/cm^2) with a section interval of 5 μm using a LSM 880 (Carl Zeiss) laser scanning confocal microscope equipped with a Coherent Chameleon 2-Photon laser. The cell culture media was replaced every two days. The integrity and diameter of the MCTs was monitored with an Axio Observer Z1 (Carl Zeiss) phase contrast microscope every 24 h.

[8] = Emission measurement in CH3CN; type: physicochemical; conditions: room temperature, excitation at 355 nm

[Ru(bipy)2((E,E′)-4,4′-Bis[p-(N,N-methoxy)styryl]-2,2′-bipyridine)][PF6]2 [Compound 7]
PI (480 nm) ([1]; U373, dark vs 480 nm (10 min, 3.1 J/cm^2)): >9.5
PI (540 nm) ([1]; U373, dark vs 540 nm (40 min, 9.5 J/cm^2)): >7.4
IC50 ([1]; read-out: IC50 480 nm (10 min, 3.1 J/cm^2), U373, irradiation 480 nm (10 min, 3.1 J/cm^2)): 10.5 ± 1.7 µM
IC50 ([1]; read-out: IC50 dark, U373, dark, 4 h incubation): > 100 µM
PI (480 nm) ([2]; CT-26, dark vs 480 nm (10 min, 3.1 J/cm^2)): >142.9
PI (540 nm) ([2]; CT-26, dark vs 540 nm (40 min, 9.5 J/cm^2)): >111.1
IC50 ([2]; read-out: IC50 540 nm (40 min, 9.5 J/cm^2), CT-26, irradiation 540 nm (40 min, 9.5 J/cm^2)): 0.9 ± 0.3 µM
IC50 ([2]; read-out: IC50 dark, CT-26, dark, 4 h incubation): > 100 µM
IC50 [3]: 13.5 ± 1.6 µM
τ/ns degassed (Lifetime) [4]: 542 ns
behaviour of treated animals ([5]; 2 mg/Kg intravenously): behave normally, without signs of pain, stress or discomfort
tumour volume, PDT treated ([5]; 2 mg/Kg intravenously plus 2P irradiation at 800 nm or 1P irradiation at 500 nm, 15 days): drastically shrank until they were nearly eradicated
tumour volume, compound only ([5]; 2 mg/Kg intravenously, no irradiation): did not show any significant effect
PI (480 nm) ([6]; RPE-1, dark vs 480 nm (10 min, 3.1 J/cm^2)): >32.3
PI (540 nm) ([6]; RPE-1, dark vs 540 nm (40 min, 9.5 J/cm^2)): >11.9
volume of the MCTS after light irradiation [7]: strongest phototoxic effect
λem/nm (Emission maximum) [8]: 664 nm
